Key:
Type in all cases: cell-based
[1] = test system: Staphylococcus aureus S13E
Description: (§1) The antibacterial efficacy of the present compounds is illustrated by Table III. The minimal inhibitory concentrations (MICs) were determined using a standard broth micro-dilution assay.

Enterococcus faecium 180 = assay: MIC, standard broth micro-dilution assay, EF 180
Description: as §1

[2] = test system: Staphylococcus aureus 489; assay: MIC, standard broth micro-dilution assay, SA 489
Description: as §1

[3] = test system: Staphylococcus aureus X778; assay: MIC, standard broth micro-dilution assay, SA X778
Description: as §1

[4] = test system: Staphylococcus aureus SA1199A; assay: MIC, standard broth micro-dilution assay, SA 1199A
Description: as §1

[5] = test system: Staphylococcus epidermidis 270; assay: MIC, standard broth micro-dilution assay, SE 270
Description: as §1

[6] = test system: Sensitive Enterococcus faecium and faecalis; assay: MIC, standard broth micro-dilution assay, Sensitive; conditions: geometric mean of 4-6 isolates
Description: as §1

[7] = test system: Staphylococcus haemolyticus 415; assay: MIC, standard broth micro-dilution assay, SH 415
Description: as §1

Escherichia coli EC14 = assay: MIC, standard broth micro-dilution assay, EC 14
Description: as §1

[8] = test system: Staphylococcus aureus SA1199; assay: MIC, standard broth micro-dilution assay, SA 1199
Description: as §1

[9] = test system: Staphylococcus aureus X400; assay: MIC, standard broth micro-dilution assay, SA X400
Description: as §1

[10] = test system: Staphylococcus aureus 446; assay: MIC, standard broth micro-dilution assay, SA 446
Description: as §1

[11] = test system: Haemophilus influenzae RD; assay: MIC, standard broth micro-dilution assay, HFRD
Description: as §1

[12] = test system: Staphylococcus aureus 447; assay: MIC, standard broth micro-dilution assay, SA 447
Description: as §1

[13] = test system: Staphylococcus aureus 491; assay: MIC, standard broth micro-dilution assay, SA 491
Description: as §1

[14] = test system: Staphylococcus haemolyticus 105; assay: MIC, standard broth micro-dilution assay, SH 105
Description: as §1

[15] = test system: Enterococcus faecalis 2041; assay: MIC, standard broth micro-dilution assay, EF 2041
Description: as §1

[16] = test system: Resistant Enterococcus faecium and faecalis; assay: MIC, standard broth micro-dilution assay, Resistant; conditions: geometric mean of 4-6 isolates
Description: as §1

[17] = test system: Enterococcus faecalis 276; assay: MIC, standard broth micro-dilution assay, EF 276
Description: as §1

[18] = test system: Enterococcus gallinarum 245; assay: MIC, standard broth micro-dilution assay, EG 245
Description: as §1

[19] = test system: Enterococcus faecium 180-1; assay: MIC, standard broth micro-dilution assay, EF 180-1
Description: as §1

Compound	minimal inhibitory concentration (MIC), SA S13E [1]	minimal inhibitory concentration (MIC), EF 180 (Enterococcus faecium 180)	minimal inhibitory concentration (MIC), SA 489 [2]	minimal inhibitory concentration (MIC), SA X778 [3]	minimal inhibitory concentration (MIC), SA 1199A [4]	minimal inhibitory concentration (MIC), SE 270 [5]	minimal inhibitory concentration (MIC), Sensitive [6]	minimal inhibitory concentration (MIC), SH 415 [7]	minimal inhibitory concentration (MIC), EC 14 (Escherichia coli EC14)	minimal inhibitory concentration (MIC), SA 1199 [8]	minimal inhibitory concentration (MIC), SA X400 [9]	minimal inhibitory concentration (MIC), SA 446 [10]	minimal inhibitory concentration (MIC), HFRD [11]	minimal inhibitory concentration (MIC), SA 447 [12]	minimal inhibitory concentration (MIC), SA 491 [13]	minimal inhibitory concentration (MIC), SH 105 [14]	minimal inhibitory concentration (MIC), EF 2041 [15]	minimal inhibitory concentration (MIC), Resistant [16]	minimal inhibitory concentration (MIC), EF 276 [17]	minimal inhibitory concentration (MIC), EG 245 [18]	also measured
CC1OC(OC2c3ccc(c(Cl)c3)Oc3cc4cc(c3OC3OC(CO)C(O)C(O)C3OC3CC(C)(NCc5ccc(-c6ccccc6)cc5)C(O)C(C)O3)Oc3ccc(cc3Cl)C(O)C(NC(=O)C(N)Cc3ccc(Cl)cc3)C(=O)NC(CC(N)=O)C(=O)NC4C(=O)NC3C(=O)NC2C(=O)NC(C(=O)O)c2cc(O)cc(O)c2-c2cc3ccc2O)CC(C)(N)C1O [Example 22, N^1-[D-3-(p-chlorophenyl)alanine] derivative of N^DISACC-(p-phenylbenzyl)desleucylA82846B]	2	2	1	1	0.25	0.25	0.66	4	>64	2	0.5	1	>64	1	0.5	2	1	6.7	1	0.25	minimal inhibitory concentration (MIC), EF 180-1 [19]: ≦.06
CC1OC(OC2c3ccc(c(Cl)c3)Oc3cc4cc(c3OC3OC(CO)C(O)C(O)C3OC3CC(C)(NCc5ccc(-c6ccccc6)cc5)C(O)C(C)O3)Oc3ccc(cc3Cl)C(O)C(NC(=O)C3CCCN3)C(=O)NC(CC(N)=O)C(=O)NC4C(=O)NC3C(=O)NC2C(=O)NC(C(=O)O)c2cc(O)cc(O)c2-c2cc3ccc2O)CC(C)(N)C1O [Example 12, N^1-D-proline derivative of N^DISACC-(p-phenylbenzyl)desleucylA82846B]	2	1	2	0.25	0.25	0.125	0.19	0.25	>64	1	1	2	32	0.5	0.5	0.125	0.25	2.8	1	0.25	minimal inhibitory concentration (MIC), EF 180-1 [19]: ≦.06
CC1OC(OC2c3ccc(c(Cl)c3)Oc3cc4cc(c3OC3OC(CO)C(O)C(O)C3OC3CC(C)(NCc5ccc(-c6ccccc6)cc5)C(O)C(C)O3)Oc3ccc(cc3Cl)C(O)C(NC(=O)C3CCCN3C(=O)OC(C)(C)C)C(=O)NC(CC(N)=O)C(=O)NC4C(=O)NC3C(=O)NC2C(=O)NC(C(=O)O)c2cc(O)cc(O)c2-c2cc3ccc2O)CC(C)(N)C1O [Example 26, N^1-(N-BOC-D-proline) derivative of N^DISACCC-(p-phenylbenzyl)desleucylA82846B]	1	4	0.5	0.5	0.125	0.25	0.76	2	>64	1	0.5	2	>64	1	≦.06	1	0.25	23	1	0.5	minimal inhibitory concentration (MIC), EF 180-1 [19]: ≦.06
CC1OC(OC2C(Oc3c4cc5cc3Oc3ccc(cc3Cl)[C@@H](O)[C@@H](NC(=O)[C@H]3CCCN3C(=O)OC(C)(C)C)C(=O)N[C@@H](CC(N)=O)C(=O)N[C@H]5C(=O)N[C@H]3C(=O)NC(C(=O)N[C@H](C(=O)O)c5cc(O)cc(O)c5-c5cc3ccc5O)[C@H](OC3CC(C)(N)C(O)C(C)O3)c3ccc(c(Cl)c3)O4)OC(CO)C(O)C2O)CC(C)(N)C1O (stereo partly drawn) [Example 24, N^1-(N-BOC-D-proline) derivative of desleucylA82846B]	2	>64	2	1	1	2	4	32	>64	2	2	4	>64	4	1	16	1	>128	1	8	minimal inhibitory concentration (MIC), EF 180-1 [19]: 1
CC1OC(OC2c3ccc(c(Cl)c3)Oc3cc4cc(c3OC3OC(CO)C(O)C(O)C3OC3CC(C)(NCc5ccc(-c6ccccc6)cc5)C(O)C(C)O3)Oc3ccc(cc3Cl)C(O)C(NC(=O)C(N)CCCCN)C(=O)NC(CC(N)=O)C(=O)NC4C(=O)NC3C(=O)NC2C(=O)NC(C(=O)O)c2cc(O)cc(O)c2-c2cc3ccc2O)CC(C)(N)C1O [Example 23, N^1-D-lysine derivative of N^DISACC-(p-phenylbenzyl)desleucylA82846B]	2	0.5	0.5	2	0.25	0.125	0.29	1	>64	0.5	2	1	>64	1	0.5	1	0.5	2	0.25	0.125	minimal inhibitory concentration (MIC), EF 180-1 [19]: ≦.06
CC(C)CCC(=O)NC1C(=O)NC(CC(N)=O)C(=O)NC2C(=O)NC3C(=O)NC(C(=O)NC(C(=O)O)c4cc(O)cc(O)c4-c4cc3ccc4O)C(OC3CC(C)(N)C(O)C(C)O3)c3ccc(c(Cl)c3)Oc3cc2cc(c3OC2OC(CO)C(O)C(O)C2OC2CC(C)(NCc3ccc(-c4ccccc4)cc3)C(O)C(C)O2)Oc2ccc(cc2Cl)C1O (stereo not drawn) [Example 5, N^1-(4-methyl-n-pentanoyl)-N^DISACC-(p-phenylbenzyl)desleucylA82846B]	0.125	4	0.125	0.125	≦.06	0.25	0.44	1	>64	0.25	≦.06	0.125	>64	≦.06	≦.06	≦.06	≦.06	27	1	0.25	minimal inhibitory concentration (MIC), EF 180-1 [19]: ≦.06
